Measured values taken from patent publication US8563545B2, “Compound useful for the treatment of degenerative and inflammatory diseases” (Galapagos NV, priority 2009, dated 2013).
Like-named read-outs stand apart in the source and are kept apart here.

Assays:
[1] = test system: JAK1-dependent signaling pathway (IFNα induced pSTAT1) in human whole blood; test: tissue or blood; conditions: read-out: pIC50 for inhibiting the INFα induced increase of pSTAT1 levels (converted)
Protocol: The samples were incubated at 37° C. for 30 min.
Absorbance was measured at 450 nm.

[2] = Steady state PK in rat CIA model; assay type: in vivo; conditions: plasma; for AUC(0-t): read-out: AUC (0-24 h); for half-life: read-out: T½ (converted)
Protocol: At day 7 or 11, blood samples were collected at the retro-orbital sinus with lithium heparin as anti-coagulant at the following time points: predose, 1, 3 and 6 hrs. Whole blood samples were centrifuged and the resulting plasma samples were stored at −20° C. pending analysis. Plasma concentrations of each test compound were determined by an LC-MS/MS method in which the mass spectrometer was operated in positive electrospray mode. Pharmacokinetic parameters were calculated using Winnonlin® (Pharsight®, United States) and it was assumed that the predose plasma levels were equal to the 24 hrs plasma levels.

[3] = test system: JAK1-dependent pathway (IL-6 stimulated STAT1 phosphorylation in CD4+ lymphocytes) in human whole blood; test: cells; conditions: Lymphocyte, read-out: pIC50 in the inhibition of STAT1 phosphorylation (converted)
Protocol: Therefore, blood was taken from human volunteers who gave informed consent. Blood was then equilibrated for 30 minutes at 37° C. under gentle rocking, then aliquoted in Eppendorf tubes. Compound was added at different concentrations and incubated at 37° C. for 30 minutes under gentle rocking and subsequently stimulated for 20 minutes at 37° C. under gentle rocking with interleukin 6 (IL-6) for JAK1-dependent pathway stimulation or GM-CSF for JAK2-dependent pathway stimulation. Phospho-STAT1 and phospho-STAT5 were then evaluated using FACS analysis.
The increase in phosphorylation of STAT1 by IL-6 in lymphocytes was measured using anti phospho-STAT1 antibody by FACS.
A 3-fold dilution series of the compound was prepared in DMSO (10 mM stock solution). Control-treated samples received DMSO instead of compound. All samples were incubated with a 1% final DMSO concentration.
Human blood was collected in heparinized tubes. The blood was divided in aliquots of 148.54 μl. […]
50,000 total events were counted and Phospho-STAT1 positive cells were measured after gating on CD4+ cells, in the lymphocyte gate. Data were analyzed using the FACSDiva software and the percentage inhibition of IL-6 stimulation calculated on the percentage of positive cells for phospho-STAT1 on CD4+ cells.

Cmax ([2]; PO 10 mg/kg/day) [ng/mL]	Tmax ([2]; PO 10 mg/kg/day) [h]	AUC(0-t) ([2]; PO 10 mg/kg/day) [ng·h/mL]	half-life ([2]; PO 10 mg/kg/day) [h]	Cmax ([2]; PO 30 mg/kg/day) [ng/mL]	Tmax ([2]; PO 30 mg/kg/day) [h]	AUC(0-t) ([2]; PO 30 mg/kg/day) [ng·h/mL]	half-life ([2]; PO 30 mg/kg/day) [h]	SMILES	further results
1170	1	7170	4.5	3800	1	27800	3.9	O=C(Nc1nc2cccc(-c3ccc(CN4CCS(=O)(=O)CC4)cc3)n2n1)C1CC1 [Compound 1, Cyclopropanecarboxylic acid {5-[4-(1,1-dioxo-1-thiomorpholin-4-ylmethyl)-phenyl]-[1,2,4]triazolo [1,5-a]pyridin-2-yl}-amide]	IC50 [1]: 589 nM; Cmax ([2]; PO 0.1 mg/kg/day): 5.18 ng/mL; Tmax ([2]; PO 0.1 mg/kg/day): 3 h; AUC(0-t) ([2]; PO 0.1 mg/kg/day): 30 ng·h/mL; Cmax ([2]; PO 0.3 mg/kg/day): 19.3 ng/mL; Tmax ([2]; PO 0.3 mg/kg/day): 1 h; AUC(0-t) ([2]; PO 0.3 mg/kg/day): 163 ng·h/mL; Cmax ([2]; PO 1 mg/kg/day): 102 ng/mL; Tmax ([2]; PO 1 mg/kg/day): 1 h; AUC(0-t) ([2]; PO 1 mg/kg/day): 931 ng·h/mL; half-life ([2]; PO 1 mg/kg/day): 3.6 h; Cmax ([2]; PO 3 mg/kg/day): 363 ng/mL; Tmax ([2]; PO 3 mg/kg/day): 1 h; AUC(0-t) ([2]; PO 3 mg/kg/day): 1930 ng·h/mL; half-life ([2]; PO 3 mg/kg/day): 5.6 h; IC50 [3]: 832 nM
867	1	2020	1.17	2630	1	7810	3.36	O=C(Nc1nc2cccc(-c3ccc(CN4CCOCC4)cc3)n2n1)C1CC1 [Compound 2, N-(5-(4-(morpholinomethyl)phenyl)-[1,2,4]triazolo[1,5-a]pyridin-2-yl)cyclopropanecarboxamide]	–
